In brackets after ≈: the same amount, converted by molar mass.
Legend:
[1] = tested on: Escherichia coli; assay: Antibacterial activity against Escherichia coli ATCC 25922; type: functional; conditions: Escherichia coli, ATCC 25922; read-out: MIC
[2] = tested on: Streptococcus pneumoniae; assay: Antibacterial activity against Streptococcus pneumoniae IID554; type: functional; conditions: Streptococcus pneumoniae, IID554; read-out: MIC
[3] = tested on: Enterococcus faecalis; assay: Antibacterial activity against Enterococcus faecalis ATCC 29212; type: functional; conditions: Enterococcus faecalis, ATCC 29212; read-out: MIC
[4] = tested on: Staphylococcus aureus; assay: Antibacterial activity against Staphylococcus aureus Smith; type: functional; conditions: Staphylococcus aureus, Smith; read-out: MIC
[5] = tested on: Moraxella catarrhalis; assay: Antibacterial activity against Moraxella catarrhalis ATCC 25238; type: functional; conditions: Moraxella catarrhalis, ATCC 25238; read-out: MIC
[6] = tested on: Pseudomonas aeruginosa; assay: Antibacterial activity against Pseudomonas aeruginosa PAO1; type: functional; conditions: Pseudomonas aeruginosa, PAO1; read-out: MIC
[7] = tested on: Acinetobacter baumannii; assay: Antibacterial activity against Acinetobacter baumannii IID876; type: functional; conditions: Acinetobacter baumannii, IID876; read-out: MIC
[8] = tested on: Enterococcus faecium; assay: Antibacterial activity against VanA-type vancomycin-resistant Enterococcus faecium A2373; type: functional; conditions: Enterococcus faecium, A2373; read-out: MIC
[9] = tested on: Haemophilus influenzae; assay: Antibacterial activity against Haemophilus influenzae ATCC 49247; type: functional; conditions: Haemophilus influenzae, ATCC 49247; read-out: MIC
[10] = biological target: T1, Voltage-gated inwardly rectifying potassium channel KCNH2 (Homo sapiens, UniProt Q12809); assay: Displacement of MK499 from human ERG
T1 sequence (Q12809 whole entry): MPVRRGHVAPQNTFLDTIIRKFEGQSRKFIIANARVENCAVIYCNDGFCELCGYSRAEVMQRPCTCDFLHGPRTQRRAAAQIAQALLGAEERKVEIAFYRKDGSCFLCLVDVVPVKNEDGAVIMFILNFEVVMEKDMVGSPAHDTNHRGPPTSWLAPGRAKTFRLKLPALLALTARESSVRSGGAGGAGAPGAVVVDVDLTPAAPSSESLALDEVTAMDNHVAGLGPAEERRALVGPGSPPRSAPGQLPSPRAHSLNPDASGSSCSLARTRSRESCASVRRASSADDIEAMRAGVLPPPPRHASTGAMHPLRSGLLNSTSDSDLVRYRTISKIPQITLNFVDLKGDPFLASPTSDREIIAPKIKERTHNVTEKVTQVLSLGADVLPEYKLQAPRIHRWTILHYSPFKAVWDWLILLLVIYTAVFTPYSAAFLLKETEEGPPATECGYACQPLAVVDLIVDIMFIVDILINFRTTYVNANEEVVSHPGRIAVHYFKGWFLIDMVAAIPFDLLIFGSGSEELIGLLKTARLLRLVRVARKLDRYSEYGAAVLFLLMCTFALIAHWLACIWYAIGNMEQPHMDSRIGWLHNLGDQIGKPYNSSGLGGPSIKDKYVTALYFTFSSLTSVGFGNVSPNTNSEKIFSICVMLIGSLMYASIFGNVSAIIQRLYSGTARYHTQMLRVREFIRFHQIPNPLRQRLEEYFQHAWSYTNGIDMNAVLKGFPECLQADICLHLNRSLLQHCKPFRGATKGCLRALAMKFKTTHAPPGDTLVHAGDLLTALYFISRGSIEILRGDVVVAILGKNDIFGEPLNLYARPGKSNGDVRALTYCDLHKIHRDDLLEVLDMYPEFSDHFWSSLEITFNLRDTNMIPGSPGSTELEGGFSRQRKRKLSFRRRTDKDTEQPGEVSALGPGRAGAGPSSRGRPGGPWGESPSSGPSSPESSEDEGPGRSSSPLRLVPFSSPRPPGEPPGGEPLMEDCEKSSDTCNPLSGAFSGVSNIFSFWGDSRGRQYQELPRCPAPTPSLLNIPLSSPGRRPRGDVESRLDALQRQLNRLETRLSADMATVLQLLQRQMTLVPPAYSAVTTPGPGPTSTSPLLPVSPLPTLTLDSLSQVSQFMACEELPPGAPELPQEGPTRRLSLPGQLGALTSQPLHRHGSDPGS

[11] = Half life in C57BL/6 mouse at 1 mg/kg, iv and 2 mg/kg, po; type: ADME, organism-based; conditions: in vivo
[12] = tested on: Mus musculus; assay: Dose normalized AUC in C57BL/6 mouse at 1 mg/kg, iv and 2 mg/kg, po; type: ADME, organism-based; conditions: in vivo
[13] = tested on: Staphylococcus aureus; assay: Antibacterial activity against Staphylococcus aureus Smith infected in po dosed CD1 mouse administered at 0.5 hrs post infection; type: functional
[14] = tested on: Staphylococcus aureus; assay: Antibacterial activity against Staphylococcus aureus Smith infected in iv dosed CD1 mouse administered at 0.5 hrs post infection; type: functional
[15] = Oral bioavailability in C57BL/6 mouse at 2 mg/kg; type: ADME, organism-based; conditions: in vivo
[16] = biological target: T1, Voltage-gated inwardly rectifying potassium channel KCNH2; assay: Inhibition of human ERG expressed in CHO cells measured over 5 mins by patch clamp assay
[17] = Plasma clearance in C57BL/6 mouse at 1 mg/kg, iv and 2 mg/kg, po; type: ADME, organism-based
[18] = Volume of distribution at steady state in C57BL/6 mouse at 1 mg/kg, iv and 2 mg/kg, po; type: ADME, organism-based; conditions: in vivo, read-out: Vdss
[19] = tested on: Staphylococcus aureus; assay: Ratio of MIC for quinolone-resistant Staphylococcus aureus MS5935 to MIC for quinolone-sensitive Staphylococcus aureus; type: functional

| Structure (SMILES) | MIC [1] [µg/mL] | MIC [2] [µg/mL] | MIC [3] [µg/mL] | MIC [4] [µg/mL] | MIC [5] [µg/mL] | MIC [6] [µg/mL] | MIC [7] [µg/mL] | MIC [8] [µg/mL] | MIC [9] [µg/mL] | IC50 [10] [µM] | half-life [11] [h] | AUC/dose [12] [µM·h/mg/kg] | ED90 [13] [mg/kg] | ED90 [14] [mg/kg] | bioavailability [15] [%] | IC50 [16] [µM] | clearance [17] [mL/min/kg] | Vd [18] [L/kg] | Ratio [19] |
| --- | --- | --- | --- | --- | --- | --- | --- | --- | --- | --- | --- | --- | --- | --- | --- | --- | --- | --- | --- |
| O=C1COc2ccc(CNC34CCC(C[C@]5(O)Cn6c(=O)ccc7ncc(F)c5c76)(CC3)OC4)nc2N1 | 4 (≈ 7.88 µM) | 0.25 (≈ 0.493 µM) | 4 (≈ 7.88 µM) | 0.25 (≈ 0.493 µM) | 0.25 (≈ 0.493 µM) | 16 (≈ 31.5 µM) | 2 (≈ 3.94 µM) | 8 (≈ 15.8 µM) | 1 (≈ 1.97 µM) |  |  |  |  |  |  |  |  |  |  |
| O=c1ccc2ncc(F)c3c2n1C[C@@]3(O)CC12CCC(NCc3cc4c(cc3Cl)OCCO4)(CC1)CO2 | 32 (≈ 60.6 µM) | 0.5 (≈ 0.947 µM) | 4 (≈ 7.58 µM) | 0.25 (≈ 0.474 µM) | 0.5 (≈ 0.947 µM) | 32 (≈ 60.6 µM) | 8 (≈ 15.2 µM) | 8 (≈ 15.2 µM) | 32 (≈ 60.6 µM) |  |  |  |  |  |  |  |  |  |  |
| O=C1COc2cc(Cl)c(CNC34CCC(C[C@]5(O)Cn6c(=O)ccc7ncc(F)c5c76)(CC3)OC4)nc2N1 | 8 (≈ 14.8 µM) | 2 (≈ 3.69 µM) | 8 (≈ 14.8 µM) | 0.25 (≈ 0.461 µM) |  | 16 (≈ 29.5 µM) | 2 (≈ 3.69 µM) | 16 (≈ 29.5 µM) |  | 27.7 | 3.5 | 0.7 | 29 | 24 | 51 | 126 | 38 | 7 | <4 |
| Cc1cc2c(nc1CNC13CCC(C[C@]4(O)Cn5c(=O)ccc6ncc(F)c4c65)(CC1)OC3)NC(=O)CO2 | 8 (≈ 15.3 µM) | 4 (≈ 7.67 µM) | 8 (≈ 15.3 µM) | 1.5 (≈ 2.88 µM) | 0.5 (≈ 0.959 µM) | 32 (≈ 61.4 µM) | 4 (≈ 7.67 µM) | 32 (≈ 61.4 µM) | 4 (≈ 7.67 µM) |  |  |  |  |  |  |  |  |  |  |
| CCc1cc2c(nc1CNC13CCC(C[C@]4(O)Cn5c(=O)ccc6ncc(F)c4c65)(CC1)OC3)NC(=O)CO2 | 16 (≈ 29.9 µM) | 32 (≈ 59.7 µM) | 32 (≈ 59.7 µM) | 8 (≈ 14.9 µM) | 1 (≈ 1.87 µM) | 32 (≈ 59.7 µM) | 1 (≈ 1.87 µM) | 32 (≈ 59.7 µM) | 16 (≈ 29.9 µM) | > 60 |  |  |  |  |  | > 60 |  |  | <4 |
| Nc1cc2c(nc1CNC13CCC(C[C@]4(O)Cn5c(=O)ccc6ncc(F)c4c65)(CC1)OC3)NC(=O)CO2 | 32 (≈ 61.2 µM) | 32 (≈ 61.2 µM) | 32 (≈ 61.2 µM) | 8 (≈ 15.3 µM) | 4 (≈ 7.65 µM) | 32 (≈ 61.2 µM) | 32 (≈ 61.2 µM) | 32 (≈ 61.2 µM) | 32 (≈ 61.2 µM) |  |  |  |  |  |  |  |  |  | <4 |
| O=C1COc2cc(O)c(CNC34CCC(C[C@]5(O)Cn6c(=O)ccc7ncc(F)c5c76)(CC3)OC4)nc2N1 | 16 (≈ 30.6 µM) | 2 (≈ 3.82 µM) | 8 (≈ 15.3 µM) | 2 (≈ 3.82 µM) | 1 (≈ 1.91 µM) | 16 (≈ 30.6 µM) | 32 (≈ 61.1 µM) | 16 (≈ 30.6 µM) | 4 (≈ 7.64 µM) |  |  |  |  |  |  |  |  |  | <4 |
| O=C1COc2cc(OC(=O)c3ccccc3)c(CNC34CCC(C[C@]5(O)Cn6c(=O)ccc7ncc(F)c5c76)(CC3)OC4)nc2N1 | 32 (≈ 51 µM) | 32 (≈ 51 µM) | 32 (≈ 51 µM) | 8 (≈ 12.7 µM) | 32 (≈ 51 µM) | 32 (≈ 51 µM) | 32 (≈ 51 µM) | 32 (≈ 51 µM) | 32 (≈ 51 µM) |  |  |  |  |  |  | 30.5 |  |  | <4 |
| O=C1COc2cnc(CNC34CCC(C[C@]5(O)Cn6c(=O)ccc7ncc(F)c5c76)(CC3)OC4)nc2N1 | 8 (≈ 15.7 µM) | 2 (≈ 3.93 µM) | 4 (≈ 7.87 µM) | 0.5 (≈ 0.983 µM) |  | 16 (≈ 31.5 µM) | 32 (≈ 62.9 µM) | 16 (≈ 31.5 µM) |  |  |  |  |  |  |  | 30 |  |  | <4 |
| N#Cc1c(CNC23CCC(C[C@]4(O)Cn5c(=O)ccc6ncc(F)c4c65)(CC2)OC3)ncc2c1OCCO2 | 32 (≈ 61.6 µM) | 32 (≈ 61.6 µM) | 32 (≈ 61.6 µM) | 8 (≈ 15.4 µM) | 32 (≈ 61.6 µM) | 32 (≈ 61.6 µM) | 32 (≈ 61.6 µM) | 32 (≈ 61.6 µM) | 32 (≈ 61.6 µM) |  |  |  |  |  |  |  |  |  |  |
| O=c1ccc2ncc(F)c3c2n1C[C@@]3(O)CC12CCC(NCc3cc4c(cn3)OCCS4)(CC1)CO2 | 32 (≈ 62.7 µM) | 0.5 (≈ 0.979 µM) | 2 (≈ 3.92 µM) | 0.25 (≈ 0.49 µM) | 1 (≈ 1.96 µM) | 32 (≈ 62.7 µM) | 4 (≈ 7.83 µM) | 8 (≈ 15.7 µM) | 8 (≈ 15.7 µM) |  |  |  |  |  |  |  |  |  |  |
| O=c1ccc2ncc(F)c3c2n1C[C@@]3(O)CC12CCC(NCc3cc4c(cn3)SCCO4)(CC1)CO2 | 16 (≈ 31.3 µM) | 0.25 (≈ 0.49 µM) | 2 (≈ 3.92 µM) | 0.12 (≈ 0.235 µM) | 0.5 (≈ 0.979 µM) | 32 (≈ 62.7 µM) | 2 (≈ 3.92 µM) | 4 (≈ 7.83 µM) | 8 (≈ 15.7 µM) |  |  |  |  |  |  |  |  |  |  |

Reference: ChEMBL document CHEMBL3425423, “Hydroxy tricyclic 1,5-naphthyridinone oxabicyclooctane-linked novel bacterial topoisomerase inhibitors as broad-spectrum antibacterial agents-SAR of RHS moiety (Part-3)” (Bioorg Med Chem Lett, 2015)
